These results are taken from patent US8829200B2, “Benzimidazole inhibitors of leukotriene production” (Boehringer Ingelheim International GmbH, priority 2010, dated 2014).

Assay [1] concerns biomarkers for myocardial infarction risk. The note with it: clinical trial; cited from earlier work.
A further assay relates to ApoE−/−xCD4dnTβRII mice. The note with it: administration via infusion, treated for four weeks; cited from earlier work.
In assay [2] the test system is apoE/LDL-R double knockout mice. The note with it: oral dosing, high-fat diet from 2 months of age to 6 months; cited from earlier work.
Assay [3] deals with synthesis of LTB4 in human whole blood. Description: human whole blood LTB4 production inhibition assay. Type of assay: cell-based. The note with it: heparinized human whole blood, calcimycin-stimulated, plasma LTB4; read-out: hWB IC50. How it is done: Compounds are additionally tested in a human whole blood assay to determine their ability to inhibit the synthesis of LTB4 in a cellular system. Compounds are combined with heparinized human whole blood and incubated for 15 minutes at 37° C. Calcimycin ([…], prepared in phosphate-buffered saline, pH 7.4) is then added and the mixture is incubated for another 30 minutes at 37° C. The samples are centrifuged for 5 min at low speed (1500×g) and the plasma layer is removed. Plasma LTB4 concentrations are then measured using an antibody-based homogenous time-resolved fluorescence method (CisBio, Bedford, Mass.).

The target in assay [4] is recombinant human FLAP protein (Homo sapiens (Human), UniProt P20292). Description: FLAP binding assay (Scintillation Proximity Assay). To be noted: displacement of [125I]L-691,831, membranes of sf9 cells expressing human FLAP; read-out: SPA IC50. On the procedure: Compounds are assessed for the ability to bind to FLAP in a binding assay that measures compound-specific displacement of an iodinated (^125I) FLAP inhibitor via a Scintillation Proximity Assay format (adapted from S. Charleson et al., Mol. Pharmacol., 1992, 41, 873-879).
Cell pellets produced from sf9 insect cells expressing recombinant human FLAP protein are resuspended in buffer A [15 mM Tris-HCl (pH 7.5), 2 mM MgCl2, 0.3 mM EDTA, 1 mM PMSF]. The cells are lysed with a Dounce homogenizer and the material is centrifuged at 10,000×g for 10 minutes. The supernatant is then collected and centrifuged at 100,000×g for 60 minutes. To prepare membrane protein for an assay, an aliquot of the 100,000×g pellet is resuspended in 1 ml of buffer A, Dounce homogenized, and finally subjected to polytron mixing (30 seconds). Membrane protein (25 μl, 5 μg) is mixed with WGA SPA beads (Amersham) and stirred for 1 h. To an assay plate (Perkin Elmer FlexiPlate) is added 25 μl of test compound prepared in Binding buffer [100 mM Tris (pH 7.5), 140 mM NaCl, 5% glycerol, 2 mM EDTA, 0.5 mM TCEP, 0.05% Tween 20], 25 μl of [^125I]L-691,831 (an iodinated analog of MK-591, Charleson et al. Mol. Pharmacol., 41, 873-879, 1992) and finally 50 μl of the bead/protein mixture. (final concentrations: beads, 200 μg/well; protein, 5 μg/well; [^125I] probe, 0.08 nM/well (17 nCi/well). The plates are shaken for 2 h before reading on a Microbeta plate reader. Non-specific binding is determined by the addition of 10 μM cold L-691,831 compound.

In another assay the test system is human glomerulonephritis. The note with it: clinical trial; cited from earlier work.

Sequence of recombinant human FLAP protein (P20292 whole entry): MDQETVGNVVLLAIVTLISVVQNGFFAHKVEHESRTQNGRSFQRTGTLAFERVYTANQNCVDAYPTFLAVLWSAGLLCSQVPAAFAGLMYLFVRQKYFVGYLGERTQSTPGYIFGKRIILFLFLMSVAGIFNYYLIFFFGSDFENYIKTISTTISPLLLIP

On to `O=C(O)[C@@H](c1ccc(OCc2ccc3ccccc3n2)cc1)C1CCCC1` [DG-031], for which the “effect on biomarkers for myocardial infarction risk” value in assay [1] is given as “dose-dependent suppression of several biomarkers”.
Take `CC(C)c1ccc2c(c1)c(SC(C)(C)C)c(CC(C)(C)C(=O)O)n2Cc1ccc(Cl)cc1` [MK-886]: the “decrease in plaque area in the aortic root” value in the assay with ApoE−/−xCD4dnTβRII mice was ~40%. For the same molecule, in assay [2], the “decrease in plaque coverage in the aorta” value is reported as 56% and the “decrease in plaque coverage in the aortic root” value is recorded as 43%.
As to `CNC(=O)c1ccc(-c2nn[nH]n2)cc1-c1nc2cc(-c3cnc(N)nc3)ccc2n1C(C)(C)C` [Example 9, 2-[5-(2-Amino-pyrimidin-5-yl)-1-tert-butyl-1H-benzoimidazol-2-yl]-N-methyl-4-(2H-tetrazol-5-yl)-benzamide], the IC50 in assay [3] was > 5000 nM; in assay [4], 111 nM.
The matching figures for `CC(C)(C)n1c(-c2ccccc2C(=O)Nc2cccnc2)nc2cc(-c3cnc(N)nc3)ccc21` [Example 22, 2-[5-(2-Amino-pyrimidin-5-yl)-1-tert-butyl-1H-benzoimidazol-2-yl]-N-pyridin-3-yl-benzamide]: 2250 nM and 1.5 nM.
For `CC(C)(C)n1c(-c2cc(C(=O)O)ccc2F)nc2cc(-c3cnc(N)nc3)ccc21` [Example 15, 3-[5-(2-Amino-pyrimidin-5-yl)-1-tert-butyl-1H-benzoimidazol-2-yl]-4-fluoro-benzoic acid] the same measures were > 5000 nM and 220 nM.
Take `CC(C)(C)n1c(-c2ccccc2C(=O)Nc2ccccn2)nc2cc(-c3cnc(N)nc3)ccc21` [Example 20, 2-[5-(2-Amino-pyrimidin-5-yl)-1-tert-butyl-1H-benzoimidazol-2-yl]-N-pyridin-2-yl-benzamide]: the IC50 came out at 2700 nM in assay [3] and 2.2 nM in assay [4].
The matching figures for `CNC(=O)c1cc(OC)ccc1-c1nc2cc(-c3cnc(N)nc3)ccc2n1C(C)(C)C` [Example 7, 2-[5-(2-Amino-pyrimidin-5-yl)-1-tert-butyl-1H-benzoimidazol-2-yl]-5-methoxy-N-methyl-benzamide]: 414 nM and 21.9 nM.
For `CCNC(=O)c1ccccc1-c1nc2cc(-c3cnc(N)nc3)ccc2n1C(C)(C)C` [Example 23, 2-[5-(2-Amino-pyrimidin-5-yl)-1-tert-butyl-1H-benzoimidazol-2-yl]-N-ethyl-benzamide] the same measures were 2230 nM and 17.4 nM.
Turning to `CC(C)(C)n1c(-c2ccccc2C(=O)N2CCOCC2)nc2cc(-c3cnc(N)nc3)ccc21` [Example 28, {2-[5-(2-Amino-pyrimidin-5-yl)-1-tert-butyl-1H-benzoimidazol-2-yl]-phenyl}-morpholin-4-yl-methanone], the IC50 in assay [3] was > 5000 nM; in assay [4] it was 520 nM.
For `CNC(=O)c1cccc(F)c1-c1nc2cc(-c3cnc(N)nc3)ccc2n1C(C)(C)C` [Example 34, 2-[5-(2-Amino-pyrimidin-5-yl)-1-tert-butyl-1H-benzoimidazol-2-yl]-3-fluoro-N-methyl-benzamide] the same measures were 906 nM and 15.8 nM.
`CC(C)(C)Sc1c(CC(C)(C)C(=O)O)n(Cc2ccc(Cl)cc2)c2ccc(OCc3ccc4ccccc4n3)cc12` [MK-591]: the effect on proteinuria entry in the assay with human glomerulonephritis was “reduce proteinuria”.
Turning to `CC(C)(C)n1c(-c2ccccc2C(=O)Nc2ccncc2)nc2cc(-c3cnc(N)nc3)ccc21` [Example 3, 2-[5-(2-Amino-pyrimidin-5-yl)-1-tert-butyl-1H-benzoimidazol-2-yl]-N-pyridin-4-yl-benzamide], the IC50 in assay [3] came to 763 nM; in assay [4], 0.91 nM.
Regarding `CNC(=O)c1ccc(C#N)cc1-c1nc2cc(-c3cnc(N)nc3)ccc2n1C(C)(C)C` [Example 8, 2-[5-(2-Amino-pyrimidin-5-yl)-1-tert-butyl-1H-benzoimidazol-2-yl]-4-cyano-N-methyl-benzamide], the IC50 in assay [3] is 94 nM; in assay [4], 7.4 nM.
